In article PMC6585933 (Clinical Pharmacology in Drug Development, 2018):
“And” between values parts separate entries of the source, which are not always exact repeats. Equal values may be shown once. Read-outs that look alike come from different tables or passages of the source.

Experiments:
[1] = type: in vivo, human; settings: for AUC: AUC0–tn; for AUC(0-inf): AUC0–∞
[2] = type: in vivo, human; settings: for CL/F, arithmetic mean: N = 24; for AUC0‐∞, ratio amenamevir with ritonavir vs amenamevir alone / Cmax, ratio amenamevir with ritonavir vs amenamevir alone: ritonavir 600 mg; for AUC: AUC0‐∞; for AUC / Cmax: LS mean, n = 24; for Tmax: po
[3] = system: OATP1B1; settings: ^14C‐amenamevir, ref unpublished data held by Maruho; cited from earlier work
[4] = type: in vivo, human; settings: for CL/F, arithmetic mean / Tmax: plasma; for CL/F, arithmetic mean: n = 24; for Tmax: male, human, po
[5] = system: CYP3A4/5; settings: read-out: half maximal inhibitory concentration, very weak or no inhibitory activity, ref unpublished data held by Maruho; cited from earlier work
[6] = system: OAT1; settings: ^14C‐amenamevir, ref unpublished data held by Maruho; cited from earlier work
[7] = system: organic cation uptake transporter‐2; settings: ^14C‐amenamevir, organic cation uptake transporter‐2–expressing cells; ref unpublished data held by Maruho; cited from earlier work
[8] = system: OAT3; settings: ^14C‐amenamevir, ref unpublished data held by Maruho; cited from earlier work
[9] = system: OATP1B3; settings: ^14C‐amenamevir, ref unpublished data held by Maruho; cited from earlier work
[10] = single oral dose of 200 mg ^14C‐amenamevir; ref unpublished data held by Maruho; cited from earlier work
[11] = ^14C‐amenamevir in humans; ref unpublished data held by Maruho; cited from earlier work
[12] = system: human multidrug resistance transporter P‐glycoprotein (P‐gp); settings: ^14C‐amenamevir, cells expressing P‐gp; ref unpublished data held by Maruho; cited from earlier work
[13] = system: CYP3A4; settings: human hepatocytes, 1 to 100 μM; ref unpublished data held by Maruho; cited from earlier work
[14] = system: cytochrome P450 (CYP) 3A4/5; settings: human liver microsomes; ref unpublished data held by Maruho; cited from earlier work
[15] = amenamevir plus ketoconazole vs amenamevir alone; cited from earlier work
[16] = system: acyclovir‐resistant VZV strains; settings: in vitro; cited from earlier work
[17] = cited from earlier work
[18] = saquinavir with a single concomitant dose of 600‐mg ritonavir; cited from earlier work
[19] = amenamevir 400 mg with ritonavir 600 mg
[20] = amenamevir 1200 mg with ritonavir 600 mg
[21] = amenamevir 400‐mg or 1200‐mg with single 600‐mg dose of ritonavir
[22] = male, human, plasma, 1200 mg, amenamevir 1200 mg alone
[23] = male, human, plasma, amenamevir 400 mg with ritonavir 600 mg
[24] = male, human, plasma, amenamevir 1200 mg with ritonavir 600 mg
[25] = midazolam with rifampicin as inducer
[26] = Day 12 midazolam 7.5 mg with amenamevir 400 mg vs Day 1 midazolam alone
[27] = Day 19, midazolam 7.5 mg alone, 7 days after last amenamevir dose, n = 18
[28] = after amenamevir 400 mg once daily for 10 days
[29] = male, human, plasma, oral, arithmetic mean, Day 12, midazolam 7.5 mg with amenamevir 400 mg (last of 10 daily doses), n = 18
[30] = male, human, plasma, oral, geometric mean, Day 12, midazolam 7.5 mg with amenamevir 400 mg (last of 10 daily doses), n = 18
[31] = male, human, plasma, oral, LS mean, Day 12, midazolam 7.5 mg with amenamevir 400 mg (last of 10 daily doses), n = 18

## OCc1ncc2n1-c1ccc(Cl)cc1C(c1ccccc1F)=NC2 [1‐hydroxymidazolam]
[1]; metabolite after midazolam 7.5 mg with amenamevir 400 mg
  plasma concentrations, influence of coadministration of amenamevir: not influenced

## Cc1cccc(C)c1N(CC(=O)Nc1ccc(-c2ncon2)cc1)C(=O)C1CCS(=O)(=O)CC1 [amenamevir]
[2]; amenamevir 400 mg single oral dose alone, plasma
  CL/F, arithmetic mean: 18.3 L/h
[2]; [19]
  geometric mean AUC0‐∞, times higher than after amenamevir alone: about 2.6 times higher
  geometric mean Cmax, times higher than after amenamevir alone: about 1.4 times higher
[2]; amenamevir 400 mg with single dose ritonavir 600 mg
  CL/F, arithmetic mean: 6.8 L/h
[2]; amenamevir 400 mg
  AUC0‐∞, ratio amenamevir with ritonavir vs amenamevir alone: 260%
  Cmax, ratio amenamevir with ritonavir vs amenamevir alone: 136%
[2]; amenamevir 1200 mg single oral dose alone, plasma
  CL/F, arithmetic mean: 25.7 L/h
[2]; [20]
  geometric mean AUC0‐∞, times higher than after amenamevir alone: ~3.3 times higher
  geometric mean Cmax, times higher than after amenamevir alone: ~1.6 times higher
[2]; amenamevir 1200 mg with single dose ritonavir 600 mg
  CL/F, arithmetic mean: 7.6 L/h
[2]; amenamevir 1200 mg
  AUC0‐∞, ratio amenamevir with ritonavir vs amenamevir alone: 334%
  Cmax, ratio amenamevir with ritonavir vs amenamevir alone: 163%
[2]; [21]
  increase in AUC: > 3 fold
  increase in Cmax: about 1.5 fold
[2]; male, human, plasma, 400 mg, amenamevir 400 mg alone
  AUC: 23.2 µg·h/mL
[2]; [22]
  AUC: 48.5 µg·h/mL
  Cmax: 3.8 µg/mL
[2]; [23]
  AUC: 60.2 µg·h/mL
  Cmax: 2.52 µg/mL
[2]; [24]
  AUC: 162 µg·h/mL
  Cmax: 6.21 µg/mL
[2]; male, human, plasma, geometric mean elimination half‐life, amenamevir alone, irrespective of the dose (400 mg and 1200 mg)
  half-life: ~7 h
[2]; male, human, plasma, oral, 400 mg, amenamevir 400 mg alone
  Cmax: 1.85 µg/mL
[2]; male, human, plasma, 400 mg
  Tmax: 3 h
[2]; male, human, plasma, 1200 mg
  Tmax: 3 h
[2]; with 400‐mg amenamevir (ritonavir study group)
  treatment‐emergent adverse event headache, frequency: 16.7%
[2]; with 1200‐mg amenamevir (ritonavir study group)
  treatment‐emergent adverse event headache, frequency: 29.2%
[3]
  uptake into transporter‐expressing cells: no uptake
[4]; amenamevir 400 mg single oral dose alone (control)
  CL/F, arithmetic mean: 17.7 L/h
[4]; amenamevir 1200 mg single oral dose alone (control)
  CL/F, arithmetic mean: 25.7 L/h
[4]; amenamevir 1200 mg with cyclosporine 100 mg twice daily
  geometric mean (90%CI) AUC0‐∞ as % of that after amenamevir alone: ~79(73, 85) % and ~79%
[4]; 400 mg
  Tmax: 3 h
[4]; 1200 mg
  Tmax: 3 h
[5]
  IC50: > 100 µM
[6]
  uptake into transporter‐expressing cells: no uptake
[7]
  uptake into transporter‐expressing cells: no uptake
[8]
  uptake into transporter‐expressing cells: no uptake
[9]
  uptake into transporter‐expressing cells: no uptake
[10]
  ^14C radioactivity recovered in feces: 74.6%
[11]
  plasma protein binding: about 75%
[12]
  substrate of the human multidrug resistance P‐gp transporter: is a substrate
[13]
  induction of CYP3A4: showed the potential to induce CYP3A4
[14]
  role of CYP3A4/5 in the metabolism of amenamevir: main isozymes
[15]
  geometric mean ratio for AUCinf (90%CI): 2.58 (90%CI, 2.32‐2.87)
  geometric mean ratio for Cmax (90%CI): 1.30 (90%CI, 1.17‐1.45)
[16]
  activity against acyclovir‐resistant VZV strains: good activity

## Cc1ncc2n1-c1ccc(Cl)cc1C(c1ccccc1F)=NC2 [midazolam]
[17]; midazolam before rifampicin
  mean elimination half‐life: 3.2 h
[17]; [25]
  reduction of AUC: 64 fold
  reduction of Cmax: 27 fold
[1]; CYP3A‐inducing effect of amenamevir
  reduction in plasma concentrations of midazolam: 52%
[1]; Day 1, midazolam 7.5 mg oral alone (control), plasma, n = 18
  CL/F, arithmetic mean: 68.5 L/h
[1]; Day 12, midazolam 7.5 mg with amenamevir 400 mg (last of 10 daily doses), n = 18
  CL/F, arithmetic mean: 134.3 L/h
[1]; [26]
  AUC0–∞, LS mean ratio vs control (90%CI): ~51%
  Cmax, LS mean ratio vs control (90%CI): about 68%
[1]; [27]
  CL/F, arithmetic mean: 63 L/h
  Tmax, median: 0.5 h
[1]; Day 19 midazolam alone vs Day 1 midazolam alone
  AUC0–∞, LS mean ratio vs control: 110%
[1]; Day 26, midazolam 7.5 mg alone, 14 days after last amenamevir dose, n = 18
  CL/F, arithmetic mean: 65.2 L/h
[1]; Day 26 midazolam alone vs Day 1 midazolam alone
  AUC0–∞, LS mean ratio vs control: 108%
[1]; [28]
  reduction of Cmax of midazolam: about 32%
  reduction of average concentrations (AUC) of midazolam: about 51%
[1]; [29]
  AUC: 0.059 µg·h/mL
  AUC(0-inf): 0.0603 µg·h/mL
  Cmax: 0.0245 µg/mL
[1]; [30]
  AUC: 0.0567 µg·h/mL
  AUC(0-inf): 0.058 µg·h/mL
  Cmax: 0.0234 µg/mL
[1]; [31]
  AUC(0-inf): 0.058 µg·h/mL
  Cmax: 0.023 µg/mL
[1]; male, human, plasma, oral, t1/2, arithmetic mean, Day 12, midazolam 7.5 mg with amenamevir 400 mg (last of 10 daily doses), n = 18
  half-life: 3.7 h
[1]; male, human, plasma, po, 7.5 mg
  Tmax: 0.5 h

## CC(C)c1nc(CN(C)C(=O)N[C@H](C(=O)N[C@@H](Cc2ccccc2)C[C@H](O)[C@H](Cc2ccccc2)NC(=O)OCc2cncs2)C(C)C)cs1 [ritonavir, reference compound]
[2]; ritonavir 600 mg single dose with amenamevir 400 mg, n 24
  t1/2, geometric mean: 4.5 h

## CC(C)(C)NC(=O)[C@@H]1C[C@@H]2CCCC[C@@H]2CN1C[C@@H](O)[C@H](Cc1ccccc1)NC(=O)[C@H](CC(N)=O)NC(=O)c1ccc2ccccc2n1 [saquinavir]
[18]
  increase of plasma concentrations: > 50 fold
